The structures appear in SMILES notation.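 Interpolation was linear, between the two tested concentrations surrounding the appropriate level; five concentrations were tested over 48 hours in 96-well plates. TGI is the concentration that stops growth completely.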

Some test systems named below: HOP-62 NSCLC; MCF7 breast; SK-MEL-5 melanoma; COLO 205 colon; SK-MEL-2 melanoma; SW-620 colon; M14 melanoma; SF-539 CNS; RXF 393 renal; HL-60(TB) leukemia; SN12C renal; 786-0 renal; HS 578T breast; NCI-H23 lung; K-562 leukemia; NCI/ADR-RES ovarian; DU-145 prostate; LOX IMVI melanoma; UACC-257 melanoma; HOP-92 NSCLC.
Holding throughout (assay): NCI tumour cell line growth inhibition, 48 h

With `Cc1ccc(OCC2OC(C#N)C(Oc3ccc(C)cc3)C2Oc2ccc(C)cc2)cc1` (stereo unspecified), the TGI in the experiment on HOP-62 NSCLC, in the experiment on MCF7 breast, with SK-MEL-5 melanoma, in the experiment on COLO 205 colon, in the experiment with SK-MEL-2 melanoma and in the experiment on SW-620 colon was over 100 µM in each case. Further, the TGI in the experiment on M14 melanoma, in the experiment on SF-539 CNS, with RXF 393 renal, in the experiment on HL-60(TB) leukemia, in the experiment with SN12C renal and with 786-0 renal was over 100 µM each time. For the same molecule, the TGI in the experiment on HS 578T breast, in the experiment with NCI-H23 lung, in the experiment on K-562 leukemia, in the experiment on NCI/ADR-RES ovarian and in the experiment with DU-145 prostate was over 100 µM throughout.
Turning to `Nc1ncnc2c1ncn2C1C=CC(CP(=O)(O)O)C1` (stereo unspecified), the TGI in the experiment with HOP-62 NSCLC, in the experiment on LOX IMVI melanoma, with UACC-257 melanoma, with MCF7 breast, in the experiment with SK-MEL-5 melanoma and in the experiment with COLO 205 colon was over 100 µM throughout. Besides, the TGI in the experiment on SK-MEL-2 melanoma, with SW-620 colon, in the experiment on M14 melanoma, with SF-539 CNS, in the experiment on RXF 393 renal and in the experiment on SN12C renal was over 100 µM in each case. For the same molecule, the TGI in the experiment on 786-0 renal, in the experiment with HS 578T breast, with NCI-H23 lung, in the experiment on NCI/ADR-RES ovarian and in the experiment on DU-145 prostate was over 100 µM throughout.
As for `COc1ccc(-c2c(C#N)c(-c3ccc(C)cc3)n(NS(=O)(=O)c3ccccc3)c(=O)c2C#N)cc1`, the TGI in the experiment on HOP-62 NSCLC is over 100 µM; with LOX IMVI melanoma, over 100 µM; in the experiment with UACC-257 melanoma it was over 100 µM; in the experiment on MCF7 breast it was over 100 µM; with HOP-92 NSCLC, over 100 µM; in the experiment with SK-MEL-5 melanoma, 44.8 µM. For the same molecule, the TGI with COLO 205 colon, with SK-MEL-2 melanoma, with SW-620 colon, in the experiment with M14 melanoma, in the experiment on SF-539 CNS and with RXF 393 renal was over 100 µM each time. Moreover, the TGI in the experiment with HL-60(TB) leukemia was 52.3 µM; in the experiment with SN12C renal, over 100 µM; in the experiment with 786-0 renal it was over 100 µM; in the experiment with HS 578T breast, over 100 µM; in the experiment with K-562 leukemia, over 100 µM; in the experiment on NCI/ADR-RES ovarian it was over 100 µM.
As for `COC(=O)C[C@@H]1C(C)(C)[C@@H]2O[C@@]34C[C@@H]2C(=O)[C@]1(C)[C@H]3CC[C@@]1(C)[C@H](c2ccoc2)OC(=O)C[C@]14O`, the TGI in the experiment with HOP-62 NSCLC, in the experiment on LOX IMVI melanoma, in the experiment on UACC-257 melanoma, in the experiment on MCF7 breast, in the experiment with HOP-92 NSCLC and in the experiment on SK-MEL-5 melanoma was over 100 µM throughout. For the same molecule, the TGI in the experiment on COLO 205 colon, in the experiment on SK-MEL-2 melanoma, with SW-620 colon, in the experiment with M14 melanoma, in the experiment on SF-539 CNS and in the experiment on HL-60(TB) leukemia was over 100 µM in each case. Besides, the TGI with SN12C renal, with 786-0 renal, with NCI-H23 lung, in the experiment with K-562 leukemia, with NCI/ADR-RES ovarian and with DU-145 prostate was over 100 µM each time.
Consider `Cn1c(=O)c2c(no[n+]2[O-])n(C)c1=O`, for which the TGI in the experiment on HOP-62 NSCLC is 47.3 µM; in the experiment on LOX IMVI melanoma it was over 100 µM; in the experiment on UACC-257 melanoma it was 84.6 µM; with MCF7 breast, over 100 µM; with HOP-92 NSCLC, 44.1 µM; in the experiment on SK-MEL-5 melanoma, over 100 µM. Further, the TGI was 43.9 µM with COLO 205 colon; over 100 µM in the experiment on SK-MEL-2 melanoma; 59.9 µM in the experiment with SW-620 colon; over 100 µM with M14 melanoma; over 100 µM in the experiment with SF-539 CNS; 94.2 µM in the experiment on RXF 393 renal. Besides, the TGI with SN12C renal was over 100 µM; in the experiment on 786-0 renal, 71.8 µM; in the experiment with HS 578T breast, 64.9 µM; in the experiment on NCI-H23 lung, 47.9 µM; in the experiment on K-562 leukemia, over 100 µM; with NCI/ADR-RES ovarian it was 46 µM.
As to `O=C1c2ccccc2-c2nc3ccc(O)cc3n21`, the TGI in the experiment on HOP-62 NSCLC, with UACC-257 melanoma, with MCF7 breast, in the experiment on HOP-92 NSCLC, in the experiment on SK-MEL-5 melanoma and in the experiment with COLO 205 colon was over 100 µM each time. In addition, the TGI in the experiment on SK-MEL-2 melanoma, in the experiment with SW-620 colon, in the experiment with M14 melanoma, in the experiment with SF-539 CNS, in the experiment on RXF 393 renal and in the experiment on HL-60(TB) leukemia was over 100 µM throughout. The TGI in the experiment on SN12C renal, with 786-0 renal, with NCI-H23 lung, with K-562 leukemia, with NCI/ADR-RES ovarian and in the experiment with DU-145 prostate was over 100 µM in each case.
For `COC(=O)CCC(NC(=O)C(C)NC(=O)COC1C(O)C(OC(=O)CCNc2c3ccccc3nc3cccc([N+](=O)[O-])c23)OC(OCc2ccccc2)C1NC(C)=O)C(N)=O` (stereo unspecified), the TGI is over 10 µM in the experiment on HOP-62 NSCLC; over 10 µM with LOX IMVI melanoma; over 10 µM in the experiment on UACC-257 melanoma; 9.81 µM in the experiment on MCF7 breast; over 10 µM in the experiment with HOP-92 NSCLC; over 10 µM in the experiment with SK-MEL-5 melanoma. Moreover, the TGI in the experiment with SK-MEL-2 melanoma is 5.57 µM; in the experiment on SW-620 colon, 4.44 µM; in the experiment on M14 melanoma it was over 10 µM; in the experiment on SF-539 CNS, over 10 µM; in the experiment on RXF 393 renal, 8.28 µM; with SN12C renal, over 10 µM. In addition, the TGI in the experiment on 786-0 renal was over 10 µM; with HS 578T breast, over 10 µM; in the experiment with NCI-H23 lung, over 10 µM; in the experiment on K-562 leukemia, over 10 µM; in the experiment with DU-145 prostate, 7.06 µM.
With `CC(=O)OCCCCn1cnc2nc(Nc3ccccc3)nc(Cl)c21`, the TGI in the experiment on HOP-62 NSCLC, with LOX IMVI melanoma, in the experiment on UACC-257 melanoma, in the experiment with MCF7 breast, with HOP-92 NSCLC and in the experiment with SK-MEL-5 melanoma was over 100 µM in each case. Further, the TGI in the experiment with COLO 205 colon, in the experiment with SK-MEL-2 melanoma, with SW-620 colon, in the experiment on M14 melanoma, with SF-539 CNS and in the experiment on RXF 393 renal was over 100 µM each time. Moreover, the TGI in the experiment on HL-60(TB) leukemia, with SN12C renal, in the experiment on 786-0 renal, in the experiment on HS 578T breast, with K-562 leukemia and with NCI/ADR-RES ovarian was over 100 µM throughout.

The values above are taken from PubChem BioAssay (NCI).
